Results: paper PMC10999543, “Identification of kinase modulators as host-directed therapeutics against intracellular methicillin-resistant Staphylococcus aureus” (Frontiers in Cellular and Infection Microbiology, 2024)
Like-named read-outs stand apart in the source and are kept apart here.

Tests used:
[1] = tested on: intracellular MRSA in HeLa cells; experiment: Gentamicin protection assay with CFU count in MRSA-infected HeLa cells; format: cell-based, Staphylococcus aureus; conditions: for CFU (% of DMSO) at 10 µM: MRSA-infected HeLa cells
Method: The cells were resuspended in cell culture medium without antibiotics, seeded with 10,000 cells/well into Costar flat-bottom 96-well plates (Corning, Amsterdam, the Netherlands), and were incubated overnight at 37°C/5% CO2. The next day, the bacteria were centrifuged at ≥1800 g for 15 min and resuspended in cold PBS + 5 mM ethylenediaminetetraacetic acid (EDTA). The number of CFUs present in the bacterial suspension was estimated from the optical density at 600 nm (OD600) by assuming 8x10^8 CFUs to be present in a bacterial suspension with OD600 = 1, based on prior titrations. The bacterial suspension was diluted in cell culture medium without antibiotics and added to the cells. Accuracy of the multiplicity of infection (MOI) was validated by plating serial dilutions of the MRSA inoculums on Difco TS agar plates (BD Biosciences). The calculated mean MOI throughout all experiments was 6.8 ± 4.6 (mean ± SD). Infected cells were centrifuged for 3 min at 150 g and incubated for 1 hour at 37°C/5% CO2. Next, the cells were incubated with fresh cell culture medium supplemented with 30 µg/ml gentamicin sulphate (Lonza BioWhittaker, Basel, Switzerland) for 15 min at 37°C/5% CO2 to kill residual extracellular bacteria. Infected cells were incubated overnight at 37°C/5% CO2 in cell culture medium in the presence of kinase inhibitors and 5 µg/ml gentamicin sulphate-containing medium to prevent the growth of extracellular bacteria. The solvent of the compounds, DMSO, was used at equal % v/v as a negative control. For the screen, each compound was tested in triplicate, on separate cell culture plates, resulting in triplicate values for each kinase inhibitor.
Infected cells were lysed in sterile water + 0.05% UltraPure SDS solution (Invitrogen, ThermoFisher Scientific) to release intracellular bacteria. Bacterial suspensions and lysates of cells infected with MRSA were 5-fold serially diluted and 10-μl drops were plated on square TS agar plates. The plates were left to dry and incubated overnight at 37°C/5% CO2.

[2] = tested on: planktonic MRSA cultures; experiment: Bacterial growth assay in cell-free planktonic MRSA cultures (OD600); format: cell-based, Staphylococcus aureus; conditions: for direct antibiotic effects against MRSA: planktonic cultures, Supplementary Figure S5
Method: […] The absorbance was measured using an EnVision plate reader (PerkinElmer). The plates were incubated at 37°C overnight and the absorbance was measured again the next day. Real-time measurement of bioluminescence by the MRSA-lux strain was performed in a white flat-bottom 96-wells plate using a SpectraMax i3x plate reader and an integration time set at 9000 ms.

[3] = tested on: intracellular MRSA; format: cell-based, Staphylococcus aureus; conditions: for %GFP+ rep 1 / z-scoreMRSA+ rep 1: replicate 1; for %GFP+ rep 2 / z-scoreMRSA+ rep 2: replicate 2; for %GFP+ rep 3 / z-scoreMRSA+ rep 3: replicate 3; for z-scoreMRSA+ mean: mean of 3 replicates; for z-score GFP+: flow cytometry screen, 10 µM, HeLa cells
Summary of the method: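 HeLa cells were infected with GFP-expressing MRSA (mean MOI 6.8) for 1 h, treated with 30 µg/ml gentamicin for 15 min, then incubated overnight at 37°C with kinase inhibitors and 5 µg/ml gentamicin. Flow cytometry gave % GFP-positive cells, with cell count as viability. Hits were z-score ≤ -2 (infection) and ≥ -3 (count) versus DMSO.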

[4] = tested on: HeLa cells; experiment: Compound screen by flow cytometry: HeLa cell count as surrogate readout of cell viability (z-scoreHeLa); format: cell-based, human; conditions: for cell count rep 1 / z-scoreHeLa rep 1: replicate 1; for cell count rep 2 / z-scoreHeLa rep 2: replicate 2; for cell count rep 3 / z-scoreHeLa rep 3: replicate 3; for z-scoreHeLa mean: mean of 3 replicates
Summary of the method: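 The viability surrogate was the count of fixed HeLa cells by flow cytometry, converted to z-scores against DMSO controls with values deviating two-fold excluded. Before counting, cells had been infected with MRSA for 1 h and cleared of extracellular bacteria with gentamicin. They were then exposed overnight to kinase inhibitors in triplicate.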

[5] = tested on: EGFR; design: method as in Elkins et al., 2016; conditions: PKIS1, Caliper assay, ref Elkins et al., 2016; cited from earlier work
[6] = tested on: HER2; design: method as in Elkins et al., 2016; conditions: PKIS1, Caliper assay, ref Elkins et al., 2016; cited from earlier work
[7] = tested on: HER4; design: method as in Elkins et al., 2016; conditions: PKIS1, Caliper assay, ref Elkins et al., 2016; cited from earlier work
[8] = PKIS compound screen raw data, MRSA-infected HeLa cells
[9] = PKIS compound screen, MRSA-infected HeLa cells
[10] = PKIS compound screen, Yes/No call
[11] = PKIS compound screen, Yes/No call (effect without cell death)
[12] = PKIS compound screen, Yes/No call on z-scoreMRSA+
[13] = PKIS compounds raw data, MRSA-infected HeLa cells
[14] = PKIS compound screen raw data, HeLa cell count
[15] = PKIS compound screen, HeLa cell count
[16] = PKIS compound screen, Yes/No call on z-scoreHeLa
[17] = PKIS compounds raw data, HeLa cell count
[18] = Yes/No: effect without cell death
[19] = compound screen, MRSA-infected HeLa cells
[20] = compound screen, HeLa cell count

Compound	effect [3, 10]	hit [3, 11]	z-scoreMRSA+ mean ([3]; PKIS compound screen)	z-scoreMRSA+ rep 1 ([3]; PKIS compound screen)	z-scoreMRSA+ rep 2 ([3]; PKIS compound screen)	z-scoreMRSA+ rep 3 ([3]; PKIS compound screen)	%GFP+ rep 1 [3, 13]	%GFP+ rep 2 [3, 13]	%GFP+ rep 3 [3, 13]	cell death [4, 10]	z-scoreHeLa mean ([4]; PKIS compound screen)	z-scoreHeLa rep 1 ([4]; PKIS compound screen)	z-scoreHeLa rep 2 ([4]; PKIS compound screen)	cell count rep 1 [4, 17]	cell count rep 2 [4, 17]	cell count rep 3 [4, 17]	CFU (% of DMSO) at 10 µM [1]	% inhibition at 1 µM EGFR [5]	% inhibition at 1 µM HER2 [6]	% inhibition at 1 µM HER4 [7]	further results
Cc1ccc(Oc2nc3cc(-c4ccc5c(ccn5C)c4)c(Cl)cc3[nH]2)cc1C(=O)O [Compound 991, reference compound]																					effect on intracellular MRSA burden ([1]; HeLa cells, 991 used at 25 μM, rapamycin at 1 μM, Figure 5J): able to reduce the intracellular MRSA burden similar to GW296115X; direct antibiotic effects against MRSA [2]: shows direct antibiotic effects
CS(=O)(=O)CCNCc1ccc(-c2ccc3ncnc(Nc4ccc(OCc5ccccc5)c(Cl)c4)c3c2)o1 [GW574783B]	Yes	No and Yes	-2.62	-2.66	-2.54	-2.65	13.4%	12.8%	13.0%	No	1.91	1.69	1.91	8853	8889	8965	53.4 % of DMSO	91%	75%	89%	%GFP+ rep 1 [3, 8]: 11.2%; %GFP+ rep 2 [3, 8]: 11.2%; %GFP+ rep 3 [3, 8]: 14.4%; z-scoreMRSA+ mean [3, 9]: -1.99; z-scoreMRSA+ rep 1 [3, 9]: -2.11; z-scoreMRSA+ rep 2 [3, 9]: -2.20; z-scoreMRSA+ rep 3 [3, 9]: -1.64; effect [3, 12]: No; z-score GFP+ [3]: -2.30; cell count rep 1 [4, 14]: 17891; cell count rep 2 [4, 14]: 35533; cell count rep 3 [4, 14]: 50424; z-scoreHeLa mean [4, 15]: 0.46; z-scoreHeLa rep 1 [4, 15]: -0.34; z-scoreHeLa rep 2 [4, 15]: 0.14; z-scoreHeLa rep 3 [4, 15]: 1.58; cell death [4, 16]: No; z-scoreHeLa rep 3 ([4]; PKIS compound screen): 2.13
[O-][S+]1CCN(Cc2ccc(-c3ccc4ncnc(Nc5ccc(OCc6ccccc6)c(F)c5)c4c3)o2)CC1 [GW576924A]	Yes	Yes	-2.35	-1.94	-2.43	-2.70	7.1%	6.2%	6.8%	No	-0.58	-1.18	-0.60	3467	3479	7054	137.9 % of DMSO	82%	91%	75%	z-score GFP+ [3]: -2.36; z-scoreHeLa rep 3 ([4]; PKIS compound screen): 0.0442
CS(=O)(=O)CCNCc1ccc(-c2ccc3ncnc(Nc4ccc(OCc5ccccc5)c(Br)c4)c3c2)o1 [GW580496A]							5.4%	6.0%	5.1%					5658	6483	11366	65.3 % of DMSO	82%	74%	80%	effect ([3]; Yes/No call from z-scoreMRSA+): Yes; hit [3, 18]: Yes; z-scoreMRSA+ mean [3, 19]: -2.73; z-scoreMRSA+ rep 1 [3, 19]: -2.50; z-scoreMRSA+ rep 2 [3, 19]: -2.51; z-scoreMRSA+ rep 3 [3, 19]: -3.18; cell death ([4]; Yes/No call from z-scoreHeLa): No; z-scoreHeLa mean [4, 20]: 1.53; z-scoreHeLa rep 1 [4, 20]: 0.80; z-scoreHeLa rep 2 [4, 20]: 1.67; z-scoreHeLa rep 3 [4, 20]: 2.11
CS(=O)(=O)CCN(CC#N)Cc1ccc(-c2ccc3ncnc(Nc4ccc(OCc5cccc(F)c5)c(Cl)c4)c3c2)o1 [GW616030X]							7.5%	7.4%	6.2%					2826	3932	5918	50.3 % of DMSO	77%	67%	74%	effect ([3]; Yes/No call from z-scoreMRSA+): Yes; hit [3, 18]: Yes; z-scoreMRSA+ mean [3, 19]: -2.24; z-scoreMRSA+ rep 1 [3, 19]: -1.82; z-scoreMRSA+ rep 2 [3, 19]: -2.03; z-scoreMRSA+ rep 3 [3, 19]: -2.88; cell death ([4]; Yes/No call from z-scoreHeLa): No; z-scoreHeLa mean [4, 20]: -0.84; z-scoreHeLa rep 1 [4, 20]: -1.76; z-scoreHeLa rep 2 [4, 20]: -0.25; z-scoreHeLa rep 3 [4, 20]: -0.50
CCCN(CCS(C)(=O)=O)Cc1ccc(-c2ccc3ncnc(Nc4ccc(OCc5cccc(F)c5)c(Cl)c4)c3c2)o1 [GW621823A]	Yes	Yes	-2.21	-2.10	-1.86	-2.67	6.6%	7.9%	6.9%	No	0.59	0.17	0.58	4961	5042	9090	68.4 % of DMSO	78%	82%	79%	z-scoreHeLa rep 3 ([4]; PKIS compound screen): 1.02
NC(=O)c1cccc(Nc2nccc(Nc3ccc(Oc4cccc(Cl)c4)c(Cl)c3)n2)c1 [GW659008A]		Yes																			%GFP+ rep 1 [3, 8]: 9.2%; %GFP+ rep 2 [3, 8]: 10.5%; %GFP+ rep 3 [3, 8]: 10.3%; z-scoreMRSA+ mean [3, 9]: -2.69; z-scoreMRSA+ rep 1 [3, 9]: -2.76; z-scoreMRSA+ rep 2 [3, 9]: -2.41; z-scoreMRSA+ rep 3 [3, 9]: -2.89; effect [3, 12]: Yes; cell count rep 1 [4, 14]: 25296; cell count rep 2 [4, 14]: 38684; cell count rep 3 [4, 14]: 42387; z-scoreHeLa mean [4, 15]: 0.60; z-scoreHeLa rep 1 [4, 15]: 0.78; z-scoreHeLa rep 2 [4, 15]: 0.73; z-scoreHeLa rep 3 [4, 15]: 0.30; cell death [4, 16]: No; inhibition at 10 µM ([2]; Staphylococcus aureus, MRSA, read-out: inhibition of planktonic MRSA growth): 67.3%
CO/C1=C\C(C)=C\[C@@H](C)[C@@H](O)[C@@H](C)C/C(C)=C/C=C/[C@H](OC)[C@@H]([C@@H](C)[C@@H](O)[C@H](C)[C@@]2(O)C[C@@H](O)[C@H](C)[C@@H](C(C)C)O2)OC1=O [bafilomycin A1, reference compound]																					reduction in the intracellular bacterial burden ([1]; HeLa cells, bafilomycin A1 alone (used at 100 nM)): 70%; direct antibiotic effects against MRSA [2]: not the case
